Reference: patent publication US5879902A, “Diagnostic methods and kits for the evaluation of the sympathetic nervous system function” (Neuro-Biotech Inc., priority 1997, dated 1999)
Where “and” joins values, the source holds several entries; their conditions need not be identical. Equal values may be shown once. Where a name gives a salt, the structure may show the parent alone.

What was measured:
Assay type in all cases: biochemical
[1] = molecular target: T1, dopamine-β-hydroxylase (Homo sapiens, UniProt P09172); experiment: Specific DBH activity in unpurified human serum (octopamine formed from tyramine, spectrophotometric); details: for % Control (DBH activity with the named component omitted) / Activity (DBH enzyme activity with the named component omitted): named ingredient omitted from reaction mixture, pool of 25 normal human serum; for Activity (DBH enzyme activity with the named component omitted): 37° C., mean ± SEM of at least 10 determinations; for decrease in enzyme activity on omission of the component from the incubation medium: component omitted; for saturation point (concentration saturating the enzyme activity): 20 μL human serum, tyramine varied at 10 mM ascorbate, ascorbate varied at 20 mM tyramine; for apparent Vmax: pH 5.0, Woolf's graphical method
T1 sequence (P09172 40-617 limits assumed): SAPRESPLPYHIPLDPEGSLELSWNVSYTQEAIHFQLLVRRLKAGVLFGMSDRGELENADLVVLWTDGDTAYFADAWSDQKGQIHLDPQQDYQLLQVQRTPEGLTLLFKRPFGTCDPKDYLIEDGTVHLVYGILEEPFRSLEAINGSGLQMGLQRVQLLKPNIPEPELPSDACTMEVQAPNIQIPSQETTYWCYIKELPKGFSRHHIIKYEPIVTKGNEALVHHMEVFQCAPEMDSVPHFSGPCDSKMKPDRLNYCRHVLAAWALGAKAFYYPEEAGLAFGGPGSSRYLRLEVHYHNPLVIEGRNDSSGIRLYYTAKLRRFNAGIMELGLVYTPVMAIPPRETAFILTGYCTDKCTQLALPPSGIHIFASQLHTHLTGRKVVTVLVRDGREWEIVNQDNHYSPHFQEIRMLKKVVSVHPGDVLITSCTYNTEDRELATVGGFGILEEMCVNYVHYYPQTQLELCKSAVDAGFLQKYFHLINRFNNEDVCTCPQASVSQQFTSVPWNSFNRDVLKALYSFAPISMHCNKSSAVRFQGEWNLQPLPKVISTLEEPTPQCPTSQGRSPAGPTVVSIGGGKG
Method: (§1) The kinetic parameters and biochemical properties were done on a pool of 25 subjects randomly distributed between males and females. An appropriate aliquot of serum was taken as enzyme source and diluted in ice-cold deionized water to a final volume of 400 μL, prior the preincubation period. For individual measurements of DBH enzyme activity, 20 μL of human serum was routinely used. For the ultrafiltration method, an aliquot of a pool of serum was passed through a DIAFLO™ Ultrafilter membrane, type YM100, and 40 μL of the ultrafiltrate was used to measure the enzyme activity (FIG. 9).
The specific DBH activity was determined by the method described by Roberge and Charbonneau (Roberge AG et al., Nutr Res, 1985, 5:57-63). The preincubation mixture contained 0.2M sodium acetate buffer (pH 5), 15 mM N-ethylmaleimide (NEM) and the enzyme source (from the serum sample) and was carried out at 25° C. for 10 min in an atmosphere of air using a metabolic shaker (Dubnoff). To the preincubated enzymatic source were added to a final volume of 1 mL: 10 mM fumarate, […], 2500 units catalase and 1 mM pargyline, as monoamide oxidasae inhibitor. Blanks and internal standards were set up in the same manner and contained 20 mM octopamine instead of the enzyme source. The incubation was started with 20 mM tyramine and conducted at 37° C. for 30 min in an atmosphere of air using a metabolic shaker (Dubnoff). The reaction was stopped on ice by adding 300 μL of 3M trichloroacetic acid to each tube and immediately centrifuged at 2500 g of at 4° C. for 10 min. The supernatant was decanted on a DOWEX™ 50×4-400 resin column and the acid eluted with 3M NH4 OH. The octopamine formed was derived to p-hydroxybenzaldehyde by periodate cleavage which was isolated by successive solvent extractions with ether and ammonia. The last aqueous phase was assayed by a dual-wavelenght spectrophotometer (333-360 nm). Specific activity was expressed […] of octopamine formed per mL per min. Recovery of octopamine added to the blank incubation mixture was 90±2%. L-tyramine was used as substrate and an aliquot of unpurified serum was taken as the enzyme source, usually 20 μL.
Apparent Michaelis constant (Km) and apparent maximum velocity (Vmax) were determined following the Woolf's graphical procedure and the usual method of Lineweaver and Burk. Statistical estimation related to enzyme kinetics was done according to Wilkinson.

[2] = molecular target: T1, dopamine-β-hydroxylase; experiment: DBH activity in ultrafiltrate of human serum (DIAFLO YM100 membrane); design: an aliquot of a pool of serum was passed through a DIAFLO™ Ultrafilter membrane, type YM100; from tissue; host or cells: ultrafiltrate of pooled human serum; details: with the named substance in the medium (15 mM NEM; copper up to 4 μM)
Method: as §1
(§2) The specific DBH activity was determined by the method described by Roberge and Charbonneau (Roberge AG et al., Nutr Res, 1985, 5:57-63). The preincubation mixture contained 0.2M sodium acetate buffer (pH 5), 15 mM N-ethylmaleimide (NEM) and the enzyme source (from the serum sample) and was carried out at 25° C. for 10 min in an atmosphere of air using a metabolic shaker (Dubnoff). To the preincubated enzymatic source were added to a final volume of 1 mL: 10 mM fumarate, […], 2500 units catalase and 1 mM pargyline, as monoamide oxidasae inhibitor. […]
The relationship between copper and NEM in the medium was studied in an aliquot of serum passed through a DIAFLO™ Ultrafilter membrane, type YM100, and the enzyme activity was measured in the ultrafiltrate. […]

[3] = molecular target: T1, dopamine-β-hydroxylase; experiment: DBH activity in human EDTA-treated blood
Method: (§3) The specific DBH activity was determined by the method described by Roberge and Charbonneau (Roberge AG et al., Nutr Res, 1985, 5:57-63). The preincubation mixture contained 0.2M sodium acetate buffer (pH 5), 15 mM N-ethylmaleimide (NEM) and the enzyme source (from the serum sample) and was carried out at 25° C. for 10 min in an atmosphere of air using a metabolic shaker (Dubnoff). To the preincubated enzymatic source were added to a final volume of 1 mL: 10 mM fumarate, […], 2500 units catalase and 1 mM pargyline, as monoamide oxidasae inhibitor. Blanks and internal standards were set up in the same manner and contained 20 mM octopamine instead of the enzyme source. The incubation was started with 20 mM tyramine and conducted at 37° C. for 30 min in an atmosphere of air using a metabolic shaker (Dubnoff). The reaction was stopped on ice by adding 300 μL of 3M trichloroacetic acid to each tube and immediately centrifuged at 2500 g of at 4° C. for 10 min. […]
(§4) Apparent Michaelis constant (Km) and apparent maximum velocity (Vmax) were determined following the Woolf's graphical procedure and the usual method of Lineweaver and Burk. […]
(§5) In FIG. 7A, the specific DBH enzyme activity was measured in human blood treated with EDTA, a copper chelator, in respect to pH dependence, to copper content added in the incubation medium and to kinetic parameters. […]

[4] = substrate: NCCc1ccc(O)cc1; experiment: Specific DBH activity in unpurified human serum (octopamine formed from tyramine, spectrophotometric); details: other: human serum, pH 5.0, Woolf's graphical method
Method: as §1, §2, §4

[5] = substrate: NCCc1ccc(O)cc1; experiment: DBH activity in human EDTA-treated blood; details: other: EDTA-treated blood, pH 5.8, Lineweaver and Burk
Method: as §3, §4, §5

O=C(O)/C=C/C(=O)O [Furnarate, disodium fumarate]
% Control (DBH activity with the named component omitted) [1]: 88% | Activity (DBH enzyme activity with the named component omitted) [1]: 47.5 ± 1.00 nmol of octopamine formed per mL per min | increase in enzyme activity by addition of fumarate ([1]; whatever the concentrations used, up to 40 mM): 12%

CCN1C(=O)C=CC1=O [N-ethylmaleimide (NEM), N-ethylmaleimide]
enzyme activity in ultrafiltrate [2]: 52±0.7 nmol of octopamine formed per mg of protein per hour | decrease in enzyme activity on omission of the component from the incubation medium ([1]; human serum): 36% and 66% | % Control (DBH activity with the named component omitted) [1]: 66% | Activity (DBH enzyme activity with the named component omitted) [1]: 35.6 ± 0.39 nmol of octopamine formed per mL per min

O=C1O[C@H]([C@@H](O)CO)C(O)=C1O [ascorbate, ascorbic acid]
saturation point (concentration saturating the enzyme activity) [1]: 10 mM | decrease in enzyme activity on omission of the component from the incubation medium ([1]; human serum): 96% | Km value lower than for tyramine (fold) ([1]; human serum): 10 times | apparent Vmax ([1]; human serum): 56 nmol of octopamine formed per mL per min | % Control (DBH activity with the named component omitted) [1]: 4% | Activity (DBH enzyme activity with the named component omitted) [1]: 2.2 ± 0.19 nmol of octopamine formed per mL per min

[Cu] [copper]
enzyme activity in ultrafiltrate [2]: 51±0.56 nmol of octopamine formed per mg of protein per hour | effect of exogenous copper on EDTA inhibition ([3]; copper from 0 to 100 μM in the medium): progressively reversed | maximum decrease in enzyme activity ([1]; 20 μM exogenous copper, with 15 mM NEM in the medium): 90% | exogenous copper content above which enzyme activity decreases significantly ([1]; with 15 mM NEM in the medium): higher than 2 μM | exogenous copper concentration above which enzyme activity decreases significantly ([1]; without NEM in the medium): higher than 4 μM

NCCc1ccc(O)cc1 [tyramine, L-tyramine]
Vmax ([3]; EDTA-treated blood, pH 5.8, Lineweaver and Burk): 38.5 nmol of octopamine formed per mL per min | saturation point (concentration saturating the enzyme activity) [1]: 20 mM | apparent Vmax ([1]; human serum): 72 nmol of octopamine formed per mL per min

B1: Catalase: beef liver catalase, added for peroxide degradation (protein, UniProt P00432 2-527, looked up)
Catalase: ADNRDPASDQMKHWKEQRAAQKPDVLTTGGGNPVGDKLNSLTVGPRGPLLVQDVVFTDEMAHFDRERIPERVVHAKGAGAFGYFEVTHDITRYSKAKVFEHIGKRTPIAVRFSTVAGESGSADTVRDPRGFAVKFYTEDGNWDLVGNNTPIFFIRDALLFPSFIHSQKRNPQTHLKDPDMVWDFWSLRPESLHQVSFLFSDRGIPDGHRHMNGYGSHTFKLVNANGEAVYCKFHYKTDQGIKNLSVEDAARLAHEDPDYGLRDLFNAIATGNYPSWTLYIQVMTFSEAEIFPFNPFDLTKVWPHGDYPLIPVGKLVLNRNPVNYFAEVEQLAFDPSNMPPGIEPSPDKMLQGRLFAYPDTHRHRLGPNYLQIPVNCPYRARVANYQRDGPMCMMDNQGGAPNYYPNSFSAPEHQPSALEHRTHFSGDVQRFNSANDDNVTQVRTFYLKVLNEEQRKRLCENIAGHLKDAQLFIQKKAVKNFSDVHPEYGSRIQALLDKYNEEKPKNAVHTYVQHGSHLSAREKANL
catalase amount up to which enzyme activity increases (then plateau till 4000 units) ([1]; human serum): 2000 units | % Control (DBH activity with the named component omitted) [1]: 10% | Activity (DBH enzyme activity with the named component omitted) [1]: 5.6 ± 0.45 nmol of octopamine formed per mL per min

B2: dopamine-β-hydroxylase (Homo sapiens) (protein)
chain: T1 sequence (P09172 40-617 limits assumed)
notes: from tissue; host or cells: human serum, unpurified (pool of 25 subjects; also individual subjects)
Km [4]: 8 mM | Km [5]: 2.4 mM
